For one experiment, the system named is NCI-H1417 cells. Nature of the experiment: Experiment 2: inhibition of NCI-H1417 cell proliferation (CellTiter-Glo, 10 days). Type of experiment: cell-based. To be noted: Homo sapiens, 240 h, 10 days incubation. Here is the method:
Experiment 2: Evaluation of Inhibitory Activity on NCI-H1417 Cell Proliferation
Experimental purpose: To test the inhibitory activity of test compounds on NCI-H1417 cell proliferation.
Experimental materials: RPMI 1640 medium, fetal bovine serum, Promega CellTiter-Glo reagent. The NCI-H1417 cell line was purchased from ATCC. Envision multilabel plate reader (PerkinElmer).
Experimental method: The compounds were dissolved to 10 mM and 5-fold diluted with DMSO in the compound plates, starting with a concentration of 2 mM. 3-fold serial dilution was performed with Bravo to 10 concentrations. Then 250 nL of the compound solution was transferred to the upper and lower double duplicate wells of a blank 384 cell plate with Echo. To each well containing the transferred 250 nL of DMSO/compound was added a cell suspension of 1000 cells/50 μL per well, and the compound was diluted 200-fold, i.e., resulting in an initial working concentration of 10 μM. The cell plate was incubated in a carbon dioxide incubator for 10 days. To the cell plate was added 25 μL of Promega CellTiter-Glo reagent per well and the mixture was shaken for 10 minutes at room temperature to stabilize the luminescence signal. Readings were performed on a PerkinElmer Envision multilabel plate reader.
Data analysis: Raw data were converted into inhibition rate using the formula: (Max−Ratio)/(Max−Min)*100%. The IC50 values could then be derived from four-parameter curve fitting. (derived from 205 mode in XLFIT5, iDBS)
The compounds were tested for inhibitory activity of compounds on NCI-H1417 cell proliferation, and the results are shown in Table 3.
On the technique in general: ATP-based viability assays read luminescence as a measure of living cells.

A further experiment addresses human LSD1 (Homo sapiens (Human), UniProt O60341). Nature of the experiment: Experiment 1B: in vitro LSD1 enzyme activity, enzyme-coupled fluorescence (HRP/Amplex Red), H3(1-21)K4me2 peptide 10 μM (Reaction Biology). To be noted: histone H3(1-21)K4me2 peptide 10 μM. It is filed as biochemical. Here is the method: Experiment 1B: Evaluation of Enzyme Activity
Testing unit: Reaction Biology Corp., USA.
The purpose of the assay was to test the in vitro inhibitory activity of the compounds against LSD1. The enzyme used in the assay was human LSD1, and the standard substrate was histone H3(1-21)K4me2 peptide (10 μM). The activity of the compounds was determined by the enzyme-coupling fluorescent method by the combined detection of H2O2 generated after the reaction of LSD1 by horseradish peroxidase (HRP) and the fluorescent reagent Amplex Red. Starting from 10 μM, the compounds were 3-fold diluted to detect the IC50 values of the compounds at 10 concentrations. The enzyme and substrate were incubated for 30 minutes before the compound was added to the substrate to start the reaction. Fluorescence detector: EnVision, excitation wavelength: Ex/Em=535/590 nM.

This is an account of results in patent publication US20240199571A1, “THIOPHENE COMPOUND AND APPLICATION THEREOF” (MEDSHINE DISCOVERY INC., priority 2021, published 2024).

Structures can show the parent of a compound that is named as a salt.

The IC50 is the point on the concentration scale where inhibition reaches its midpoint. A high value points to weaker potency in that assay. As for `N#Cc1ccc(-c2cc(C(=O)N3CCC[C@@H](N)C3)sc2-c2ccc3c(c2)OCO3)cc1F` [Hydrochloride of compound 37], the results for the IC50 with NCI-H1417 cells and at human LSD1 were 0.93 nM and 1.73 nM, respectively.
Take `CC(C)(CO)n1cc2cc(-c3sc(C(=O)N4CCCNCC4)cc3-c3ccc(C#N)c(F)c3)ccc2n1` [Hydrochloride of compound 102]: the IC50 is 31.4 nM in the experiment with NCI-H1417 cells and 56.9 nM at human LSD1.
Turning to `CC(C)S(=O)(=O)c1ccc(-c2sc(C(=O)N3CCC[C@@H](N)C3)cc2-c2ccc(C#N)c(F)c2)cc1` [Hydrochloride of compound 47], the IC50 in the experiment with NCI-H1417 cells is 10.2 nM; against human LSD1, 48.8 nM.
The like results for `COc1ccc(-c2sc(C(=O)N3CCC(N(C)C)C3)cc2-c2ccc(C#N)c(F)c2)cc1F` (stereo not drawn) [Hydrochloride of compound 24] were, in that order, 30.6 nM and 70.9 nM.
Taken in the same sequence, the figures for `N#Cc1ccc(-c2cc(C(=O)N3CCC[C@@H](N)C3)sc2-c2ccnc(N)c2)cc1F` [Hydrochloride of compound 33] were 16.2 nM and 38 nM.
The like results for `CN1Cc2ccc(-c3sc(C(=O)N4CCC[C@@H](N)C4)cc3-c3ccc(C#N)c(F)c3)cc2C1=O` [Hydrochloride of compound 35] were, in that order, 8.84 nM and 24.6 nM.
For `N#Cc1ccc(-c2cc(C(=O)N3CCC[C@@H](N)C3)sc2-c2ccc3nn(C4CCOCC4)cc3c2)cc1F` [Hydrochloride of compound 64], the IC50 in the experiment on NCI-H1417 cells is 16.2 nM; against human LSD1, 29.6 nM.
`N#Cc1ccc(-c2cc(C(=O)N3CCC[C@@H](N)C3)sc2-c2cc3cn(CC4(O)CC4)nc3cc2F)cc1F` [Hydrochloride of compound 93]: the IC50 in the experiment on NCI-H1417 cells is 4.11 nM; on human LSD1 it was 18 nM.
Consider `CC(C)(O)c1ccc(-c2sc(C(=O)N3CCC[C@@H](N)C3)cc2-c2ccc(C#N)c(F)c2)cc1` [Compound 50], for which the IC50 in the experiment with NCI-H1417 cells turned out to be 9.19 nM; at human LSD1, 28.3 nM.
For `CC(C)(O)CNc1ccc(-c2sc(C(=O)N3CCC[C@@H](N)C3)cc2-c2ccc(C#N)c(F)c2)cc1F` [Hydrochloride of compound 119], the IC50 with NCI-H1417 cells was determined as 9.17 nM; against human LSD1 it was 17.7 nM.
For the molecule `Cn1nc2ccc(-c3sc(C(=O)N4CCC[C@@H](N)C4)cc3-c3ccc(C#N)c(F)c3)cc2c1F` [Hydrochloride of compound 123], the IC50 with NCI-H1417 cells was determined as 6.25 nM; on human LSD1, 26.7 nM.
Turning to `COc1ccc(-c2sc(C(=O)N3CCNC(C)CC3)cc2-c2ccc(C#N)c(F)c2)cc1F` (stereo not drawn) [Hydrochloride of compound 29], the IC50 was determined as 17.2 nM with NCI-H1417 cells and 29.7 nM against human LSD1.
In the case of `COc1ccc(-c2sc(C(=O)N3CCC[C@@H](N)C3)cc2-c2ccc(C#N)c(F)c2)c(F)c1` [Hydrochloride of compound 21], the IC50 came to 6.83 nM in the experiment with NCI-H1417 cells and 19.4 nM on human LSD1.
Taken in the same sequence, the figures for `CC1(O)CN(c2ccc(-c3sc(C(=O)N4CCC[C@@H](N)C4)cc3-c3ccc(C#N)c(F)c3)cc2)C1` [Hydrochloride of compound 118] were 31.6 nM and 13.8 nM.
On to `CC(C)(CO)n1nnc2cc(-c3sc(C(=O)N4CCCNCC4)cc3-c3ccc(C#N)c(F)c3)c(F)c(F)c21` [Hydrochloride of compound 103], for which the IC50 in the experiment on NCI-H1417 cells turned out to be 13.7 nM; against human LSD1 it was 21.6 nM.
Take `CC(C)(O)Cn1ncc2cc(-c3sc(C(=O)N4CCC[C@@H](N)C4)cc3-c3ccc(C#N)c(F)c3)ccc21` [Compound 57]: the IC50 with NCI-H1417 cells was 1.53 nM; on human LSD1, 10.4 nM.
Consider `N#Cc1ccc(-c2cc(C(=O)N3CCC[C@@H](N)C3)sc2-c2cc3nnn([C@H]4COCC[C@@H]4O)c3c(F)c2F)cc1F` [Hydrochloride of compound 97], for which the IC50 in the experiment on NCI-H1417 cells stood at 9.6 nM; against human LSD1 it was 25.3 nM.
In the case of `N#Cc1ccc(-c2cc(C(=O)N3CCC[C@@H](N)C3)sc2-c2ccc3nn(C4CCOC4)cc3c2)cc1F` (stereo partly drawn) [Hydrochloride of compound 72], the values for the IC50 in the experiment on NCI-H1417 cells and against human LSD1 were 4.47 nM and 8.56 nM, respectively.
